Reference: patent US6906237B2, “Vivo assay for anti angiogenic compounds” (priority 2001, dated 2005)
“Also recorded” adds a separate entry of the source.

Columns and labels:
[1] = system: HDMEC-GT derived microvessels; assay: SCID mice xenografting of HDMEC-GT in Matrigel with pro-angiogenic factors; human vessel density by human type IV collagen micromorphometry; format: in vivo, human cells in SCID mice; conditions: for human vessel density (human type IV collagen micromorphometry), result in words: VEGF 2 μg/ml or FGF-2 150 ng/ml in Matrigel with HDMEC-GT, two weeks after implantation, versus controls
Procedure: (§1) This procedure is based on a modification of the mouse angiogenesis model previously described^41. Two-three week old male or female SCID mice (Taconic, Germantown, N.Y.) were used as hosts for all implants. Primary HDMEC and HDMEC-T were harvested, washed twice and re-suspended in serum-free EGM-2 basal medium at the concentration of 1×10^5/μl. Ten μl of cells were mixed with 0.5 ml of Matrigel on ice and the mixture was implanted in the ventral midline thoracic tissue of each mouse by subcutaneous injection using a #25 needle. Up to three separate injections could be performed on a single mouse. For some experiments, recombinant human VEGF165 (2 μg/ml) (R&D systems, Minneapolis, Minn.) or bovine FGF-2 (150 ng/ml) (R&D systems, Minneapolis, Minn.) were added to the mixture. When tumor cells (HT1080 and 293, ATCC) or primary human dermal fibroblasts^38 were injected, the procedure remained the same except basal D-MEM medium replaced EGM-2.
(§2) Matrigel implants were removed at 1, 2, 4 and 6 wk following xenografting, fixed in 10% buffered formalin overnight, paraffin-embedded and sectioned. H&E stained thin sections were prepared at Pan-insular Histopathology laboratory (Los Gatos, Calif.). For immunofluoresence, thin sections were deparaffinized and antigens retrieved in 10 mM citric acid (pH 6.0) by microwaving sections for 2×7 min. Sections were then incubated with anti-human type IV collagen IgG (Sigma, St. Louis, Mo.) primary antibody, followed by washing and Cy-3 conjugated secondary IgG according to standard protocols. […] For micromorphometry, 5 separate 20× fields were randomly selected per tissue section and the number of annular structures were counted and averaged. Unless specifically stated otherwise, 3 different sections were viewed per implant and replicate implants were grafted for each experimental condition (FIGS. 3 and 6).

[2] = system: host murine blood vessels; assay: Host vessel invasion of Matrigel implants in SCID mice without human EC; format: in vivo; conditions: FGF-2 alone in Matrigel, no HDMEC
Procedure: as §1
Matrigel implants were removed at 1, 2, 4 and 6 wk following xenografting, fixed in 10% buffered formalin overnight, paraffin-embedded and sectioned. H&E stained thin sections were prepared at Pan-insular Histopathology laboratory (Los Gatos, Calif.). […] For micromorphometry, 5 separate 20× fields were randomly selected per tissue section and the number of annular structures were counted and averaged. […]

[3] = system: HDMEC-GT derived microvessels; assay: Endostatin blocking experiments: HDMEC-GT co-implanted with endostatin cDNA-transfected HEK293 cells in Matrigel in SCID mice; format: in vivo, human cells in SCID mice; conditions: 1:10 ratio HEK293endo to HDMEC-GT, implants removed after one and two weeks, versus sham-transfected HEK293lacZ
Procedure: as §2
For digital analysis of eGFP fluorescence images we used a novel algorithm (Moss Filter™) to determine the total amount of vascularization in each implant section. This filter determines whether or not each pixel is part of the fluorescently-labeled vascular region. The filter converts the original (8-bit) digital image into a binary image. Pixel values equal to 1 indicate vascularization, whereas zero values indicate no vascularization. The total amount of vascularization in each implant section is obtained by summing all the values in the binary image.
Inhibition of in vivo vessel formation by local delivery of human endostatin was accomplished as follows: The plasmid pGT60hEndo, expressing recombinant human endostatin (InvivoGen, San Diego, Calif.), was stably transfected into human embryonic kidney (HEK293) cell line by calcium phosphate transfection (Invitrogen, Carlsbad, Calif.). […] HEK293 cells expressing lacZ served as a control for both Western blots and grafting experiments. The cell implantation procedure was the same as that described above except that 1×10^5 (or 10^4 or 10^3) transfected HEK were mixed with HDMEC-GT immediately prior to implantation. Grafts were examined at both one week and two after injection and sections were analyzed by both micromorphometry and eGFP as previously described.

[4] = listed as recombinant human endostatin

Row | Molecule | human vessel density (human type IV collagen micromorphometry), result in words [1] | host vessel invasion of Matrigel implants [2] | increased vessel density relative to controls ([1]; VEGF 2 μg/ml mixed with HDMEC-GT and Matrigel, two weeks after grafting, human type IV collagen micromorphometry) | vessel density by micromorphometry (human type IV collagen staining) [3] | vessel density by total fluorescence intensity extracted from binary images of eGFP (Moss Filter) [3] | vessel density by micromorphometry (human type IV collagen staining) [3, 4] | vessel density by total fluorescence intensity extracted from binary images of eGFP (Moss Filter) [3, 4]
1 | FGF-2: bovine FGF-2 (R&D systems), known pro-angiogenic factor | statistically increased human vessel density | stimulated; also recorded: marked host vessel invasion |  |  |  |  | 
2 | VEGF | increased vessel density; also recorded: did not demonstrate statistical significance |  | 20-30% |  |  |  | 
3 | endostatin: recombinant human endostatin, 22kD protein expressed by HEK293 cells stably transfected with plasmid pGT60hEndo (HEK293endo) (protein, UniProt P39060 1572-1754, looked up, Endostatin) Endostatin: HSHRDFQPVLHLVALNSPLSGGMRGIRGADFQCFQQARAVGLAGTFRAFLSSRLQDLYSIVRRADRAAVPIVNLKDELLFPSWEALFSGSEGPLKPGARIFSFDGKDVLRHPTWPQKSVWHGSDPNGRRLTESYCETWRTEAPSATGQASSLLGGRLLGQSAASCHHAYIVLCIENSFMTASK |  |  |  | statistically significant loss of vessel density | statistically significant loss of vessel density | decreased microvessel formation | decreased microvessel formation
